Measured values reported in patent US9725465B2, “Biaryl acetamide compounds and methods of use thereof” (Ambit Biosciences Corporation, priority 2013, dated 2017).

Legend:
KIT kinase = KIT kinase (Homo sapiens (Human), UniProt P10721); test: Competition binding assay (Kd), KIT; settings: competition binding
Protocol: In certain embodiments, competition binding assays were performed as described in Fabian et al., Nature Biotechnology 2005, 23, 329-336.
Competition binding assays used herein were developed, validated and performed as described in Fabian et al., Nature Biotechnology 2005, 23, 329-336. Kinases were produced as fusions to T7 phage (See, Fabian et al. or WO04/015142) or alternatively, the kinases were expressed in HEK-293 cells and subsequently tagged with DNA for PCR detection (See, WO08/005,310). […] The liganded beads were blocked with excess biotin and washed with blocking buffer (SeaBlock (Pierce), 1% BSA, 0.05% Tween 20, 1 mM DTT) to remove unbound ligand and to reduce non-specific binding. […] Test compounds were prepared as 100× stocks in DMSO and diluted into the aqueous environment. Kds were determined using an eleven point threefold serial dilutions. DMSO or control compounds were was added to control assays lacking a test compound. […] The kinase concentration in the eluates was measured by quantitative PCR. […]

FLT3 kinase = FLT3 kinase (Homo sapiens (Human), UniProt P36888); test: Competition binding assay (Kd), FLT3; settings: competition binding
Chain of FLT3 kinase (P36888 27-993): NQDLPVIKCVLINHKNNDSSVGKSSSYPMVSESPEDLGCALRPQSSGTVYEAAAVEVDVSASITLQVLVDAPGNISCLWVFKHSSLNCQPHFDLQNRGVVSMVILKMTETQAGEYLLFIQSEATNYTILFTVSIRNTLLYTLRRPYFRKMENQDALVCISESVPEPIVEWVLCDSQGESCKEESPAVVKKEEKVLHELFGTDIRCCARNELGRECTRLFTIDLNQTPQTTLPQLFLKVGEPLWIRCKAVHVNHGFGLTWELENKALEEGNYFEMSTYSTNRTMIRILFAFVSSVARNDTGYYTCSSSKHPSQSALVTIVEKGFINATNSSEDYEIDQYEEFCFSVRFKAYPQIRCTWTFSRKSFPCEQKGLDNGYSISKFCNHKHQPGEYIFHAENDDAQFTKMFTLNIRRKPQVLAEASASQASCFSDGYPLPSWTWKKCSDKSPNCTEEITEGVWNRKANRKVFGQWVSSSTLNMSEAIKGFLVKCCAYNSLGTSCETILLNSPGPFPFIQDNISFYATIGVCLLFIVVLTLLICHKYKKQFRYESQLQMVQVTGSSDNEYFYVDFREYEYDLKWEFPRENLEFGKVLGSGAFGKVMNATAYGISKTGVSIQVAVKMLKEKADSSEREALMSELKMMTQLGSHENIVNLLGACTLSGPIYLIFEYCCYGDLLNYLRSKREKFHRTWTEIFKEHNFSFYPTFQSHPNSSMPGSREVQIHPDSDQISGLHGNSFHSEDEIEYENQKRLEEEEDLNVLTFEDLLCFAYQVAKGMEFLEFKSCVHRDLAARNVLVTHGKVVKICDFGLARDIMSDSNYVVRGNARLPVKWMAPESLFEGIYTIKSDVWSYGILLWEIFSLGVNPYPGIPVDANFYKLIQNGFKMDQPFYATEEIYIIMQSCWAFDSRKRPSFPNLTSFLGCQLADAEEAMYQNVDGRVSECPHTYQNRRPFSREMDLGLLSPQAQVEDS
Protocol: A selectivity score (S35) is a quantitative measure of selectivity of a compound against a panel of kinases. […] Percent of control (POC) is calculated by subtracting the signal of the control compound (POC=0) from the signal of the test compound and dividing the outcome by the signal of DMSO (POC=100) minus the signal of the control compound.

Chain of KIT kinase (P10721 26-976): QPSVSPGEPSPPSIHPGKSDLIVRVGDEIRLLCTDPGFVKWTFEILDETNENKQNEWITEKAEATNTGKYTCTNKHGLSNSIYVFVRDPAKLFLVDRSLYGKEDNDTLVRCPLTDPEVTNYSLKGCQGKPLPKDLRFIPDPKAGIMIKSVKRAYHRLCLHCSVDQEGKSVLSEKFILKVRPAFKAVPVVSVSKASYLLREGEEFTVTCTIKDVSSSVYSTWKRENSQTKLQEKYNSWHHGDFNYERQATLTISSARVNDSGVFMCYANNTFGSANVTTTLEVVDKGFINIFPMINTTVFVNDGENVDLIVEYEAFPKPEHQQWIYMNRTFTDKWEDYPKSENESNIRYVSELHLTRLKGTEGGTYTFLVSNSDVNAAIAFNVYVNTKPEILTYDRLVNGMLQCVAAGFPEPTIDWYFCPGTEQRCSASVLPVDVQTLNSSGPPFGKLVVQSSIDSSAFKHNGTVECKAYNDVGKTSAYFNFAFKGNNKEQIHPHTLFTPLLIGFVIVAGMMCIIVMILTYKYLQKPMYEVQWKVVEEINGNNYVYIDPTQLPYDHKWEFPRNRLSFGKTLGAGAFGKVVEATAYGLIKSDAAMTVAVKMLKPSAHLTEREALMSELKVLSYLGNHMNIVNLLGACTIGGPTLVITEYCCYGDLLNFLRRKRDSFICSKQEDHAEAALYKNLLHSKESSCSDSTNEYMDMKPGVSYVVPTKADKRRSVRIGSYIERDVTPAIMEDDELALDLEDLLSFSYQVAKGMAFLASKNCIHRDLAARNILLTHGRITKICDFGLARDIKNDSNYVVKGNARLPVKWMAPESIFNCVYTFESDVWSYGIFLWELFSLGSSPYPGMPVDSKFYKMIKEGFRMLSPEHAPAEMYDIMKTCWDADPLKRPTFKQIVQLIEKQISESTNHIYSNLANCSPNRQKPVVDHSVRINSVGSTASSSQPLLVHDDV

SMILES	Kd (KIT kinase) [nM]	Kd (FLT3 kinase) [nM]
COc1cc2ncc(-c3ccc(CC(=O)Nc4cc(C(C)(C)C(F)(F)F)on4)c(F)c3)cc2cc1OCCNC(C)=O [Example 205, 2-[4-[6-(2-acetamidoethoxy)-7-methoxy-3-quinolyl]-2-fluoro-phenyl]-N-[5-(2,2,2-trifluoro-1,1-dimethyl-ethyl)isoxazol-3-yl]acetamide]	< 5	< 5
COc1cc2ncc(-c3ccc(CC(=O)Nc4cc(C(C)(C)C(F)(F)F)on4)c(F)c3)cc2cc1OCCN1CCC(O)CC1 [Example 206, 2-[2-fluoro-4-[6-[2-(4-hydroxy-1-piperidyl)ethoxy]-7-methoxy-3-quinolyl]phenyl]-N-[5-(2,2,2-trifluoro-1,1-dimethyl-ethyl)isoxazol-3-yl]acetamide]	< 5	< 5
COc1cc2ncc(-c3ccc(CC(=O)Nc4cc(C(C)(C)C(F)(F)F)on4)c(F)c3)cc2cc1OCCN1CCC(F)(F)CC1 [Example 207, 2-[4-[6-[2-(4,4-difluoro-1-piperidyl)ethoxy]-7-methoxy-3-quinolyl]-2-fluoro-phenyl]-N-[5-(2,2,2-trifluoro-1,1-dimethyl-ethyl)isoxazol-3-yl]acetamide]	20 to 50	< 5
COc1cc2nc(-c3ccc(CC(=O)Nc4cc(C5(C(F)(F)F)CC5)on4)c(F)c3)cnc2cc1OC[C@@H](C)O [Example 208, 2-[2-fluoro-4-[6-[(2R)-2-hydroxypropoxy]-7-methoxy-quinoxalin-2-yl]phenyl]-N-[5-[1-(trifluoro-methyl)cyclopropyl]isoxazol-3-yl]acetamide]	< 5	< 5
COc1cc2nc(-c3ccc(CC(=O)Nc4cc(C(C)(C)C(F)(F)F)on4)c(F)c3)cnc2cc1OCCCN1CCOCC1 [Example 209, 2-[2-fluoro-4-[7-methoxy-6-(3-morpholino-propoxy)quinoxalin-2-yl]phenyl]-N-[5-(2,2,2-trifluoro-1,1-dimethyl-ethyl)isoxazol-3-yl]acetamide]	< 5	< 5
COc1cc2nc(-c3ccc(CC(=O)Nc4cc(C(C)(C)C(F)(F)F)on4)c(F)c3)cnc2cc1OCCn1cncn1 [Example 210, 2-[2-fluoro-4-[7-methoxy-6-[2-(1,2,4-triazol-1-yl)ethoxy]quinoxalin-2-yl]phenyl]-N-[5-(2,2,2-trifluoro-1,1-dimethyl-ethyl)isoxazol-3-yl]acetamide]	< 5	< 5
COc1cc2nc(-c3ccc(CC(=O)Nc4cc(C(C)(C)C(F)(F)F)on4)c(F)c3)cnc2cc1OCCn1cnnc1 [Example 211, 2-[2-fluoro-4-[7-methoxy-6-[2-(1,2,4-triazol-4-yl)ethoxy]quinoxalin-2-yl]phenyl]-N-[5-(2,2,2-trifluoro-1,1-dimethyl-ethyl)isoxazol-3-yl]acetamide]	< 5	< 5
COc1cc2nc(-c3ccc(CC(=O)Nc4cc(C5(C(F)(F)F)CC5)on4)c(F)c3)cnc2cc1OCCCN1CCOCC1 [Example 212, 2-[2-fluoro-4-[7-methoxy-6-(3-morpholino-propoxy)quinoxalin-2-yl]phenyl]-N-[5-[1-(trifluoro-methyl)cyclopropyl]isoxazol-3-yl]acetamide]	< 5	< 5
COc1cc2ncc(-c3ccc(CC(=O)Nc4cc(C5(C(F)(F)F)CC5)on4)c(F)c3)nc2cc1OCCCN1CCOCC1 [Example 213, 2-[2-fluoro-4-[6-methoxy-7-(3-morpholino-propoxy)quinoxalin-2-yl]phenyl]-N-[5-[1-(trifluoro-methyl)cyclopropyl]isoxazol-3-yl]acetamide]	< 5	< 5
COc1cc2ncc(-c3ccc(CC(=O)Nc4cc(C5(C(F)(F)F)CC5)on4)c(F)c3)nc2cc1OCCCNC(C)=O [Example 214, 2-[4-[7-(3-acetamidopropoxy)-6-methoxy-quinoxalin-2-yl]-2-fluoro-phenyl]-N-[5-[1-(trifluoromethyl)cyclo-propyl]isoxazol-3-yl]acetamide]	< 5	< 5
COc1cc2nc(-c3ccc(CC(=O)Nc4cc(C(C)(C)C)on4)cc3)cnc2cc1OCCN1CCOCC1 [Example 215, N-(5-tert-butylisoxazol-3-yl)-2-[4-[7-methoxy-6-(2-morpholino-ethoxy)quinoxalin-2-yl]phenyl]acetamide]	< 5	< 5
COc1cc2nc(-c3ccc(CC(=O)Nc4cc(C5(C(F)(F)F)CC5)on4)c(F)c3)cnc2cc1OCCN1CCS(=O)(=O)CC1 [Example 216, 2-[4-[6-[2-(1,1-dioxo-1,4-thiazinan-4-yl)ethoxy]-7-methoxy-quinoxalin-2-yl]-2-fluoro-phenyl]-N-[5-[1-(trifluoromethyl)cyclo-propyl]isoxazol-3-yl]acetamide]	< 5	< 5
COc1cc2ncc(-c3ccc(CC(=O)Nc4cc(C(C)(C)C(F)(F)F)on4)cc3F)nc2cc1OC [Example 217, 2-[4-(6,7-dimethoxyquinoxalin-2-yl)-3-fluoro-phenyl]-N-[5-(2,2,2-trifluoro-1,1-dimethyl-ethyl)isoxazol-3-yl]acetamide]	< 5	< 5
COc1cc2ncc(-c3cc(F)c(CC(=O)Nc4cc(C5(C(F)(F)F)CC5)on4)cc3F)nc2cc1OC [Example 218, 2-[4-(6,7-dimethoxyquinoxalin-2-yl)-2,5-difluoro-phenyl]-N-[5-[1-(trifluoro-methyl)cyclopropyl]isoxazol-3-yl]acetamide]	< 5	< 5
COc1cc2ncc(-c3cc(F)c(CC(=O)Nc4cc(C(C)(C)C(F)(F)F)on4)cc3F)nc2cc1OC [Example 219, 2-[4-(6,7-dimethoxyquinoxalin-2-yl)-2,5-difluoro-phenyl]-N-[5-(2,2,2-trifluoro-1,1-dimethyl-ethyl)isoxazol-3-yl]acetamide]	< 5	< 5
CC(=O)NCCOc1cc2ncc(-c3ccc(CC(=O)Nc4cc(C(C)(C)C(F)(F)F)on4)c(F)c3)nc2cc1OCCNC(C)=O [Example 220, 2-[4-[6,7-bis(2-acetamidoethoxy)quinoxalin-2-yl]-2-fluoro-phenyl]-N-[5-(2,2,2-trifluoro-1,1-dimethyl-ethyl)isoxazol-3-yl]acetamide]	< 5	< 5
CC(=O)N(C)CCOc1cc2ncc(-c3ccc(CC(=O)Nc4cc(C(C)(C)C(F)(F)F)on4)c(F)c3)nc2cc1OCCN(C)C(C)=O [Example 221, 2-[4-[6,7-bis[2-[acetyl(methyl)amino]ethoxy]quinoxalin-2-yl]-2-fluoro-phenyl]-N-[5-(2,2,2-trifluoro-1,1-dimethyl-ethyl)isoxazol-3-yl]acetamide]	< 5	< 5
COc1cc2nc(-c3ccc(CC(=O)Nc4cc(C5(C(F)(F)F)CC5)on4)c(F)c3)cnc2cc1OCCCS(C)(=O)=O [Example 222, 2-[2-fluoro-4-[7-methoxy-6-(3-methylsulfonyl-propoxy)quinoxalin-2-yl]phenyl]-N-[5-[1-(trifluoromethyl)cyclo-propyl]isoxazol-3-yl]acetamide]	< 5	< 5
COc1cc2nc(-c3ccc(CC(=O)Nc4cc(C5(C(F)(F)F)CC5)on4)c(F)c3)cnc2cc1OCCN1CC2CC(C1)O2 [Example 223, 2-[2-fluoro-4-[7-methoxy-6-[2-(6-oxa-3-azabicyclo[3.1.1]heptan-3-yl)ethoxy]quinoxalin-2-yl]phenyl]-N-[5-[1-(trifluoromethyl)cyclo-propyl]isoxazol-3-yl]acetamide]	< 5	< 5
